Experiments:
[1] = Cytotoxicity against human EKVX cells assessed as cell growth at 10 uM after 48 hrs by SRB assay relative to control; type: functional; conditions: read-out: Activity
[2] = system: SNB-19; test: Cytotoxicity against human SNB19 cells assessed as cell growth at 10 uM after 48 hrs by SRB assay relative to control; type: functional; conditions: SNB-19, 48 h, read-out: Activity
[3] = system: TK-10; test: Cytotoxicity against human TK10 cells assessed as cell growth at 10 uM after 48 hrs by SRB assay relative to control; type: functional; conditions: TK-10, 48 h, read-out: Activity
[4] = system: T47D; test: Cytotoxicity against human T47D cells assessed as cell growth at 10 uM after 48 hrs by SRB assay relative to control; type: functional; conditions: read-out: Activity
[5] = system: MDA-MB-231; test: Cytotoxicity against human MDA-MB-231 cells assessed as cell growth at 10 uM after 48 hrs by SRB assay relative to control; type: functional; conditions: MDA-MB-231, 48 h, read-out: Activity
[6] = system: NCI-H322M; test: Cytotoxicity against human NCI-H322M cells assessed as cell growth at 10 uM after 48 hrs by SRB assay relative to control; type: functional; conditions: read-out: Activity
[7] = system: HT-29; test: Cytotoxicity against human HT-29 cells assessed as cell growth at 10 uM after 48 hrs by SRB assay relative to control; type: functional; conditions: HT-29, 48 h, read-out: Activity
[8] = system: MDA-MB-231; test: Antimigratory activity against human MDA-MB-231 cells after 24 hrs by wound-healing assay; type: functional, cell-based; conditions: MDA-MB-231, 24 h
[9] = system: CCRF-CEM; test: Cytotoxicity against human CCRF-CEM cells assessed as cell growth at 10 uM after 48 hrs by SRB assay relative to control; type: functional; conditions: read-out: Activity
[10] = system: KM12; test: Cytotoxicity against human KM12 cells assessed as cell growth at 10 uM after 48 hrs by SRB assay relative to control; type: functional; conditions: KM12, 48 h, read-out: Activity
[11] = Cytotoxicity against human UACC62 cells assessed as cell growth at 10 uM after 48 hrs by SRB assay relative to control; type: functional; conditions: UACC-62, 48 h, read-out: Activity
[12] = Cytotoxicity against human PC3 cells assessed as cell growth at 10 uM after 48 hrs by SRB assay relative to control; type: functional; conditions: PC-3, 48 h, read-out: Activity
[13] = Cytotoxicity against human HCT116 cells assessed as cell growth at 10 uM after 48 hrs by SRB assay relative to control; type: functional; conditions: HCT-116, 48 h, read-out: Activity
[14] = system: SK-MEL-28; test: Cytotoxicity against human SK-MEL-28 cells assessed as cell growth at 10 uM after 48 hrs by SRB assay relative to control; type: functional; conditions: SK-MEL-28, 48 h, read-out: Activity
[15] = system: NCI-H23; test: Cytotoxicity against human NCI-H23 cells assessed as cell growth at 10 uM after 48 hrs by SRB assay relative to control; type: functional; conditions: NCI-H23, 48 h, read-out: Activity
[16] = system: HCC 2998; test: Cytotoxicity against human HCC2998 cells assessed as cell growth at 10 uM after 48 hrs by SRB assay relative to control; type: functional; conditions: HCC 2998, 48 h, read-out: Activity
[17] = system: LOX IMVI; test: Cytotoxicity against human LOXIMVI cells assessed as cell growth at 10 uM after 48 hrs by SRB assay relative to control; type: functional; conditions: read-out: Activity
[18] = system: MDA-MB-231; test: Cytotoxicity against human MDA-MB-231 cells assessed as growth inhibition after 24 hrs by MTT assay; type: cell-based; conditions: MDA-MB-231, 24 h
[19] = system: MCF7; test: Cytotoxicity against human MCF7 cells assessed as cell growth at 10 uM after 48 hrs by SRB assay relative to control; type: functional; conditions: MCF7, 48 h, read-out: Activity
[20] = Cytotoxicity against human HCT15 cells assessed as cell growth at 10 uM after 48 hrs by SRB assay relative to control; type: functional; conditions: HCT-15, 48 h, read-out: Activity
[21] = system: IGROV-1; test: Cytotoxicity against human IGROV1 cells assessed as cell growth at 10 uM after 48 hrs by SRB assay relative to control; type: functional; conditions: IGROV-1, 48 h, read-out: Activity
[22] = Cytotoxicity against human UACC257 cells assessed as cell growth at 10 uM after 48 hrs by SRB assay relative to control; type: functional; conditions: UACC-257, 48 h, read-out: Activity
[23] = system: 786-0; test: Cytotoxicity against human 786-0 cells assessed as cell growth at 10 uM after 48 hrs by SRB assay relative to control; type: functional; conditions: 786-0, 48 h, read-out: Activity
[24] = system: ACHN; test: Cytotoxicity against human ACHN cells assessed as cell growth at 10 uM after 48 hrs by SRB assay relative to control; type: functional; conditions: read-out: Activity
[25] = Cytotoxicity against human OVCAR3 cells assessed as cell growth at 10 uM after 48 hrs by SRB assay relative to control; type: functional; conditions: OVCAR-3, 48 h, read-out: Activity
[26] = system: M14; test: Cytotoxicity against human M14 cells assessed as cell growth at 10 uM after 48 hrs by SRB assay relative to control; type: functional; conditions: M14, 48 h, read-out: Activity
[27] = system: SF-539; test: Cytotoxicity against human SF539 cells assessed as cell growth at 10 uM after 48 hrs by SRB assay relative to control; type: functional; conditions: SF-539, 48 h, read-out: Activity
[28] = system: SF-295; test: Cytotoxicity against human SF295 cells assessed as cell growth at 10 uM after 48 hrs by SRB assay relative to control; type: functional; conditions: SF-295, 48 h, read-out: Activity
[29] = system: SN12C; test: Cytotoxicity against human SN12C cells assessed as cell growth at 10 uM after 48 hrs by SRB assay relative to control; type: functional; conditions: read-out: Activity
[30] = system: NCI-H460; test: Cytotoxicity against human NCI-H460 cells assessed as cell growth at 10 uM after 48 hrs by SRB assay relative to control; type: functional; conditions: NCI-H460, 48 h, read-out: Activity
[31] = system: RPMI-8226; test: Cytotoxicity against human RPMI8226 cells assessed as cell growth at 10 uM after 48 hrs by SRB assay relative to control; type: functional; conditions: RPMI-8226, 48 h, read-out: Activity
[32] = system: MDA-MB-435; test: Cytotoxicity against human MDA-MB-435 cells assessed as cell growth at 10 uM after 48 hrs by SRB assay relative to control; type: functional; conditions: MDA-MB-435, 48 h, read-out: Activity
[33] = system: HOP-62; test: Cytotoxicity against human HOP62 cells assessed as cell growth at 10 uM after 48 hrs by SRB assay relative to control; type: functional; conditions: HOP-62, 48 h, read-out: Activity
[34] = system: A549; test: Cytotoxicity against human A549 cells assessed as cell growth at 10 uM after 48 hrs by SRB assay relative to control; type: functional; conditions: A549, 48 h, read-out: Activity
[35] = system: SNB-75; test: Cytotoxicity against human SNB75 cells assessed as cell growth at 10 uM after 48 hrs by SRB assay relative to control; type: functional; conditions: SNB-75, 48 h, read-out: Activity
[36] = system: K562; test: Cytotoxicity against human K562 cells assessed as cell growth at 10 uM after 48 hrs by SRB assay relative to control; type: functional; conditions: K562, 48 h, read-out: Activity

| Compound | growth at 10 µM [1] | growth at 10 µM [2] | growth at 10 µM [3] | growth at 10 µM [4] | growth at 10 µM [5] | growth at 10 µM [6] | growth at 10 µM [7] | IC50 [8] | growth at 10 µM [9] | growth at 10 µM [10] | growth at 10 µM [11] | growth at 10 µM [12] | growth at 10 µM [13] | growth at 10 µM [14] | growth at 10 µM [15] | growth at 10 µM [16] | growth at 10 µM [17] | IC50 [18] | growth at 10 µM [19] | growth at 10 µM [20] | further results |
| --- | --- | --- | --- | --- | --- | --- | --- | --- | --- | --- | --- | --- | --- | --- | --- | --- | --- | --- | --- | --- | --- |
| CC(C)=CCC[C@H](C)c1ccc(C)c(CNCC2CCNCC2)c1O | 67% | 84% | 89.4% | 88% | 69% | 80% | 8.29% | > 20 µM | 71.3% | 84% | 13.2% | 85% | 63% | 91% | 84% | -3.94% | 37.1% | > 20 µM | 78.2% | 79% | growth at 10 µM [21]: 83.4%; growth at 10 µM [22]: 64.2%; growth at 10 µM [23]: 81.2%; growth at 10 µM [24]: 81%; growth at 10 µM [25]: 83%; growth at 10 µM [26]: 46.7%; growth at 10 µM [27]: 84%; growth at 10 µM [28]: 67%; growth at 10 µM [29]: 78%; growth at 10 µM [30]: 54.7%; growth at 10 µM [31]: 61.7%; growth at 10 µM [32]: 13.9%; growth at 10 µM [33]: 84%; growth at 10 µM [34]: 86%; growth at 10 µM [35]: 71%; growth at 10 µM [36]: 2.65% |
| CC(C)=CCC[C@H](C)c1ccc(C)c2c1OCN(CCO)C2 | 97.2% | 57.9% | 88.4% | 70% | 88.8% | 104% | 68.7% | 11.1 µM | 87.5% | 103% | 96.1% | 76.9% | 71.8% | 111% | 81.7% | 84.4% | 100% | > 20 µM | 83.9% | 105% | growth at 10 µM [21]: 66.7%; growth at 10 µM [22]: 92.3%; growth at 10 µM [23]: 61%; growth at 10 µM [24]: 90.1%; growth at 10 µM [25]: 86.1%; growth at 10 µM [26]: 90.9%; growth at 10 µM [27]: 88.2%; growth at 10 µM [28]: 98.6%; growth at 10 µM [29]: 79.6%; growth at 10 µM [30]: 96%; growth at 10 µM [31]: 83.2%; growth at 10 µM [32]: 101%; growth at 10 µM [33]: 80.4%; growth at 10 µM [34]: 82.4%; growth at 10 µM [35]: 58.7%; growth at 10 µM [36]: 77.7% |
| CC(C)=CCC[C@H](C)c1ccc(C)c(CNCCO)c1O | 89% | 88.1% | 81% | 90.2% | 86.1% | 100% | 90.6% | > 20 µM | 102% | 98.7% | 92.7% | 88.1% | 93.4% | 112% | 89.1% | 76.9% | 88.7% | > 20 µM | 105% | 98.6% | growth at 10 µM [21]: 94.9%; growth at 10 µM [22]: 81.7%; growth at 10 µM [23]: 83.7%; growth at 10 µM [24]: 97.9%; growth at 10 µM [25]: 95.7%; growth at 10 µM [26]: 101%; growth at 10 µM [27]: 96.5%; growth at 10 µM [28]: 105%; growth at 10 µM [29]: 91.5%; growth at 10 µM [30]: 102%; growth at 10 µM [31]: 86.9%; growth at 10 µM [32]: 95.8%; growth at 10 µM [33]: 81%; growth at 10 µM [34]: 94.4%; growth at 10 µM [35]: 77.7%; growth at 10 µM [36]: 76.8% |
